# Columns and labels:
# [1] = system: K-562; test: panel of 60 human tumor cell lines, growth inhibition (Leukemia)
# [2] = system: LOX IMVI; test: panel of 60 human tumor cell lines, growth inhibition (Melanoma); settings: Homo sapiens
# [3] = system: SK-MEL-2; test: as above; settings: Homo sapiens
# [4] = system: SK-MEL-28; test: as above; settings: Homo sapiens
# [5] = system: SK-MEL-5; test: as above; settings: Homo sapiens
# [6] = system: UACC-257; test: as above
# [7] = system: SF-295; test: panel of 60 human tumor cell lines, growth inhibition (CNS Cancer); settings: Homo sapiens
# [8] = system: U251; test: as above; settings: Homo sapiens
# [9] = system: RXF 393; test: panel of 60 human tumor cell lines, growth inhibition (Renal Cancer); settings: Homo sapiens
# [10] = system: BT-549; test: panel of 60 human tumor cell lines, growth inhibition (Breast Cancer); settings: Homo sapiens
# [11] = system: OVCAR-3; test: panel of 60 human tumor cell lines, growth inhibition (Ovarian Cancer)
# [12] = system: OVCAR-5; test: as above; settings: Homo sapiens
# [13] = system: OVCAR-8; test: as above; settings: Homo sapiens
# [14] = system: SK-OV-3; test: as above; settings: Homo sapiens
# [15] = system: DU-145; test: panel of 60 human tumor cell lines, growth inhibition (Prostate Cancer); settings: Homo sapiens
# [16] = system: A549/ATCC; test: panel of 60 human tumor cell lines, growth inhibition (Non-Small Cell Lung Cancer); settings: Homo sapiens
# [17] = system: HOP-62; test: as above; settings: Homo sapiens
# [18] = system: NCI-H322M; test: as above; settings: Homo sapiens
compound,measurement,setting,value
C=C1C(=O)O[C@H]2[C@H]1CC/C(COC(=O)OCCN(C)C)=C\CC[C@@]1(C)O[C@@H]21 [JVM 2-35],GI50,"[1]; Homo sapiens, K562",5.55 µM
same,CC50,"[1]; Homo sapiens, K562, read-out: LC50",> 100 µM
same,Percent Growth,"[1]; K-562, Log10 Concentration −4.0",−33%
same,Percent Growth,"[1]; K-562, Log10 Concentration −5.0",30%
same,Percent Growth,"[1]; K-562, Log10 Concentration −6.0",107%
same,Percent Growth,"[1]; K-562, Log10 Concentration −7.0",96%
same,Percent Growth,"[1]; K-562, Log10 Concentration −8.0",101%
same,TGI,"[1]; K-562, NCI five dose",3.00E−5
same,GI50,[2]; NCI five dose,5.16 µM
same,CC50,[2]; read-out: LC50,47.5 µM
same,IC (TGI),[2]; read-out: TGI,18.2 µM
same,GI50,[3]; SK-MEL-2,15.2 µM
same,CC50,"[3]; SK-MEL-2, read-out: LC50",86.6 µM
same,IC (TGI),"[3]; SK-MEL-2, read-out: TGI",36.3 µM
same,GI50,[4]; SK-MEL-28,4.27 µM
same,CC50,"[4]; SK-MEL-28, read-out: LC50",48.3 µM
same,IC (TGI),"[4]; SK-MEL-28, read-out: TGI",17.9 µM
same,GI50,[5]; SK-MEL-5,11.5 µM
same,CC50,"[5]; SK-MEL-5, read-out: LC50",53.8 µM
same,IC (TGI),"[5]; SK-MEL-5, read-out: TGI",24.9 µM
same,GI50,"[6]; Homo sapiens, UACC-257",10.2 µM
same,CC50,"[6]; Homo sapiens, UACC-257, read-out: LC50",55.2 µM
same,Percent Growth,"[6]; UACC-257, Log10 Concentration −4.0",−85%
same,Percent Growth,"[6]; UACC-257, Log10 Concentration −5.0",51%
same,Percent Growth,"[6]; UACC-257, Log10 Concentration −6.0",92%
same,Percent Growth,"[6]; UACC-257, Log10 Concentration −7.0",86%
same,Percent Growth,"[6]; UACC-257, Log10 Concentration −8.0",93%
same,TGI,"[6]; UACC-257, NCI five dose",2.38E−5
same,GI50,[7]; SF-295,24.7 µM
same,CC50,"[7]; SF-295, read-out: LC50",> 100 µM
same,IC (TGI),"[7]; SF-295, read-out: TGI",> 100 µM
same,GI50,[8]; U-251,20.3 µM
same,CC50,"[8]; U-251, read-out: LC50",> 100 µM
same,IC (TGI),"[8]; U-251, read-out: TGI",45.2 µM
same,GI50,"[9]; RXF 393, RXF 393, NCI five dose",3.23 µM
same,CC50,"[9]; RXF 393, read-out: LC50",45.8 µM
same,IC (TGI),"[9]; RXF 393, read-out: TGI",13.7 µM
same,GI50,[10]; BT-549,5.82 µM
same,CC50,"[10]; BT-549, read-out: LC50",44.8 µM
same,IC (TGI),"[10]; BT-549, read-out: TGI",19.5 µM
same,GI50,"[11]; Homo sapiens, OVCAR-3",3.31 µM
same,CC50,"[11]; Homo sapiens, OVCAR-3, read-out: LC50",35.3 µM
same,IC (TGI),"[11]; Homo sapiens, OVCAR-3, read-out: TGI",11.5 µM
same,Percent Growth,"[11]; OVCAR-3, Log10 Concentration −4.0",−96%
same,Percent Growth,"[11]; OVCAR-3, Log10 Concentration −5.0",6%
same,Percent Growth,"[11]; OVCAR-3, Log10 Concentration −6.0",97%
same,Percent Growth,"[11]; OVCAR-3, Log10 Concentration −7.0",106%
same,Percent Growth,"[11]; OVCAR-3, Log10 Concentration −8.0",98%
same,GI50,[12]; OVCAR-5,13.1 µM
same,CC50,"[12]; OVCAR-5, read-out: LC50",57 µM
same,IC (TGI),"[12]; OVCAR-5, read-out: TGI",27.3 µM
same,GI50,[13]; OVCAR-8,13.5 µM
same,CC50,"[13]; OVCAR-8, read-out: LC50",96 µM
same,IC (TGI),"[13]; OVCAR-8, read-out: TGI",36 µM
same,GI50,[14]; SK-OV-3,27.5 µM
same,CC50,"[14]; SK-OV-3, read-out: LC50",> 100 µM
same,IC (TGI),"[14]; SK-OV-3, read-out: TGI",83.3 µM
same,GI50,[15]; DU-145,3.59 µM
same,CC50,"[15]; DU-145, read-out: LC50",37.7 µM
same,IC (TGI),"[15]; DU-145, read-out: TGI",13.2 µM
same,GI50,[16]; A549,16.3 µM
same,CC50,"[16]; A549, read-out: LC50",71.6 µM
same,IC (TGI),"[16]; A549, read-out: TGI",34.2 µM
same,GI50,[17]; HOP-62,22.9 µM
same,CC50,"[17]; HOP-62, read-out: LC50",> 100 µM
same,IC (TGI),"[17]; HOP-62, read-out: TGI",82.1 µM
same,GI50,[18],28.7 µM
same,CC50,[18]; read-out: LC50,> 100 µM
same,IC (TGI),[18]; read-out: TGI,> 100 µM

# From patent US9469650B2, “Melampomagnolide B derivatives” (BOARD OF TRUSTEES OF THE UNIVERSITY OF ARKANSAS, priority 2013, dated 2016)
